The record followed here is patent US20260306527A1, “PRMT INHIBITOR COMPOUNDS AND THE USES THEREOF” (Purdue Research Foundation, priority 2023, published 2026).

Common to all, as to format: biochemical
In one assay the target is T1, PRMT4 (Homo sapiens, UniProt Q86X55).
T1 sequence (Q86X55 1-608): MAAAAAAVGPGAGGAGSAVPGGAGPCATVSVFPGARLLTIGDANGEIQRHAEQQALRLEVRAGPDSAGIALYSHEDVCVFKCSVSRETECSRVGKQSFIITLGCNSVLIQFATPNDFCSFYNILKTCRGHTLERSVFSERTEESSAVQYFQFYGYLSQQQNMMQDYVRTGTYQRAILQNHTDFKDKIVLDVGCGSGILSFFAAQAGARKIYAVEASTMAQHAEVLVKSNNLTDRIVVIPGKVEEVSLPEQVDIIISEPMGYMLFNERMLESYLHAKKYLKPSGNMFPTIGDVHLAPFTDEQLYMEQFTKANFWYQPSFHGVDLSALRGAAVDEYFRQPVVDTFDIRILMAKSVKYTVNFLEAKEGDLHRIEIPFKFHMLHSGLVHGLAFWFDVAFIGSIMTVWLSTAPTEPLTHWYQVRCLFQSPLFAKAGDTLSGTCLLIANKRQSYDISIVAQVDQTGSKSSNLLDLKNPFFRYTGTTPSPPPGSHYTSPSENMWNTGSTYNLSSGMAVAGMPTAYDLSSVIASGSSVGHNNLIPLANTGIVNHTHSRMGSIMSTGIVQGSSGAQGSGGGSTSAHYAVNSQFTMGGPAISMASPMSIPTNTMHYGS
Nature of the assay: radioactive assay (Reaction Biology Corp.), inhibition of PRMT4. The method, then:
(§1) Next, the inhibition activity of the library was investigated for five PRMT members from type I PRMTs.
(§2) The PRMT 4, 6 and 8 methylation assays were performed by Reaction Biology corp.

The next assay deals with PRMT6 (Homo sapiens, UniProt Q96LA8). Nature of the assay: radioactive assay (Reaction Biology Corp.), inhibition of PRMT6. The method, then: as §1, §2
The target in a further assay is T2, PRMT1 (Homo sapiens, UniProt Q99873).
T2 construct: made in house
Nature of the assay: SAHH-coupled fluorescence assay, inhibition of PRMT1. To be noted: for IC50: read-out: IC50 FOR PRMT1. The method, then:
(§3) A fluorescence-based SAHH-coupled assay was applied to study the inhibition activity of all synthesized compounds on PRMT 1 and 3.
(§4) The PRMT1 methylation assay was performed under the following conditions in a final well volume of 100 μL: 2.5 mM HEPES (pH=7.0), 25 mM NaCl, 25 μM EDTA, 50 μM TCEP, 0.01% Triton X-100, 5 μM SAHH, 0.1 μM PRMT1, 10 μM AdoMet, and 10 μM ThioGlo4. […] The fluorescence signal was monitored on a BMG CLARIOstar microplate reader with excitation at 400 nm and emission at 465 nm for 15 min. Data were processed using GraphPad Prism software 8.0.
as §1
as §4, with “A fluorescence-based SAHH-coupled assay was applied to determine the inhibition activity of all synthesized compounds on PRMT 1 and 3. The PRMT1” for “The PRMT1”, “software 8.0. All experiments were performed in duplicate.” for “software 8.0.”

The target in the next assay is PRMT3 (Homo sapiens, UniProt O60678). Nature of the assay: SAHH-coupled fluorescence assay, inhibition of PRMT3. More on the design: PRMT3 (residues 211-531) was cloned into the pET28a-MHL expression vector; tag of the pET28a-MHL vector (not described); made in house; host or cells: Escherichia coli BL21(DE3). The method, then:
as §3
The PRMT3 methylation assay was performed under the following conditions in a final well volume of 100 μL: 20 mM Tris (pH=7.5), 0.01% Triton X-100, 5 μM SAHH, 0.25 μM PRMT3, 30 μM AdoMet, and 15 μM ThioGlo4. […] Fluorescence was monitored on a BMG CLARIOstar microplate reader with excitation 380 nm and emission 505 nm. Data were processed by using GraphPad Prism software 8.0. All experiments were performed in duplicate.
as §1
The PRMT3 methylation assay was performed under the following conditions in a final well volume of 100 μL: 20 mM Tris (pH=7.5), 0.01% Triton X-100, 5 μM SAHH, 0.25 μM PRMT3, 30 μM AdoMet, and 15 μM ThioGlo4. […] Fluorescence was monitored on a BMG CLARIOstar microplate reader with excitation 380 nm and emission 505 nm. Data were processed by using GraphPad Prism software 8.0.

In the next assay the target is PRMT8 (Homo sapiens, UniProt Q9NR22). Nature of the assay: radioactive assay (Reaction Biology Corp.), inhibition of PRMT8. The method, then: as §1, §2
PRMT8, sequence (Q9NR22 whole entry, species assumed): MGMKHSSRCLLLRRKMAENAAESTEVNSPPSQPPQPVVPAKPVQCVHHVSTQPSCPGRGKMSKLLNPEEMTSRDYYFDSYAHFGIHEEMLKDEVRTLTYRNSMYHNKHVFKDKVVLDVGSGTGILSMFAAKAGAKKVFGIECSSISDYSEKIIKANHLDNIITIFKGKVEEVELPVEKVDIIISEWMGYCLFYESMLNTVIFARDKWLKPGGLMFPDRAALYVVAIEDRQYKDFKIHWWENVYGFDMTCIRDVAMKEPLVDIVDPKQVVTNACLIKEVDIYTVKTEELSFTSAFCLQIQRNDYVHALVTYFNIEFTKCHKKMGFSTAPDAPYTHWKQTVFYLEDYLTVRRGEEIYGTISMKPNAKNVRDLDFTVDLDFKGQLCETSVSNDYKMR

PRMT3, sequence (O60678 211-531): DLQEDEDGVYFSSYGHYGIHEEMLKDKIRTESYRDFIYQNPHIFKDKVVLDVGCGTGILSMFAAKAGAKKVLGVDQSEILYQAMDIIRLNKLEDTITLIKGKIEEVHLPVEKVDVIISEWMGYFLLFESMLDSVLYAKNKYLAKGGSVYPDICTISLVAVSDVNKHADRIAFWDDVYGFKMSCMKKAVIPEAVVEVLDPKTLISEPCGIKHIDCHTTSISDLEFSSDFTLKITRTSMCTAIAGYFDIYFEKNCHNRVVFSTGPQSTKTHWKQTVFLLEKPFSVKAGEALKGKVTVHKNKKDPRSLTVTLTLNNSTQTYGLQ
T2 sequence (Q99873 whole entry, species assumed): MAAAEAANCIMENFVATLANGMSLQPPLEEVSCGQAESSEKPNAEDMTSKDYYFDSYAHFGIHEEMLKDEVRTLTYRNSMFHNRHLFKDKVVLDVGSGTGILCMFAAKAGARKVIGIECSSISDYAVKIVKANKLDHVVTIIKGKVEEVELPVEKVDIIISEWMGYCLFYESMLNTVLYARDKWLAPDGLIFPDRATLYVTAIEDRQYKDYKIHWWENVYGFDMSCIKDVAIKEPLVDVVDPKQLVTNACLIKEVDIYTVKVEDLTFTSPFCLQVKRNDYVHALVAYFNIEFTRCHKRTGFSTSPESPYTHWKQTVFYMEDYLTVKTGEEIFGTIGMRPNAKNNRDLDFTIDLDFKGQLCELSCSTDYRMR
PRMT6, sequence (Q96LA8 whole entry, species assumed): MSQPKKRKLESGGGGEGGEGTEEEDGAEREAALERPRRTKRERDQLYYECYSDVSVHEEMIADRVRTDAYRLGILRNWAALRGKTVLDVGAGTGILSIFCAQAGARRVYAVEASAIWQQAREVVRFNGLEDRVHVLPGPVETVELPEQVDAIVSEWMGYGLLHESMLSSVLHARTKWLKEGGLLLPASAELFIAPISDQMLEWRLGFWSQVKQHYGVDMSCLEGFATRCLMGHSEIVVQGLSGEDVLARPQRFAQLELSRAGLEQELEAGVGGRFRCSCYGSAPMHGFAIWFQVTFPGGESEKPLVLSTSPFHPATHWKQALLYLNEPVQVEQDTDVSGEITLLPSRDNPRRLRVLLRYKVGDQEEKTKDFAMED

What is called inhibition is the relative decrease from the control value, in per cent. `Nc1ccc(-c2ccc(CNC(=O)NCCSC[C@H]3O[C@@H](n4cnc5c(N)ncnc54)[C@H](O)[C@@H]3O)cc2)cc1` [Compound 8a]: the inhibition at 10 µM at PRMT4 amounted to 40%; on PRMT6, 72%; against PRMT1 it was 13%; against PRMT3 it was 3%; at PRMT8, 0%.

Regarding `Nc1ncnc2c1ncn2[C@@H]1O[C@H](CSCCNC(=O)NCc2ccc(-c3cccc(O)c3)cc2)[C@@H](O)[C@H]1O` [Compound 8d], the inhibition at 10 µM was determined as 37% at PRMT4; 88% at PRMT6; 22% against PRMT1; 9% against PRMT3; 15% at PRMT8.

As to `Nc1ncnc2c1ncn2[C@@H]1O[C@H](CSCCNCc2cccc(-c3ccc(C(F)(F)F)cc3)c2)[C@@H](O)[C@H]1O` [Compound 10e], the inhibition at 10 µM at PRMT4 was 99%; at PRMT6 it was 57%; against PRMT1 it was 2%; against PRMT3, 15%; on PRMT8 it was 67%.

Broadly, the IC50 is the concentration that gives 50% inhibition. For the molecule `N=C(NCCCO)NCCCSC[C@H]1O[C@@H](n2cnc3c(NCCCc4ccccc4)ncnc32)[C@H](O)[C@@H]1O` [Compound 1-92], the inhibition at 10 µM turned out to be 54% on PRMT4; 84% on PRMT6; 64% against PRMT1; 10% against PRMT3; 55% on PRMT8. Moreover, on PRMT1, the IC50 came out at 590 ± 73 nM.

For `N=C(NCCCSC[C@H]1O[C@@H](n2cnc3c(N)ncnc32)[C@H](O)[C@@H]1O)Nc1cccc(F)c1` [Compound 7s], the inhibition at 10 µM on PRMT4 is 58%; at PRMT6 it was 49%; on PRMT1, 23%; at PRMT3 it was 9%; on PRMT8, -12%.

As for `Nc1ncnc2c1ncn2[C@@H]1O[C@H](CSCCNCc2cccc(-c3ccccc3O)c2)[C@@H](O)[C@H]1O` [Compound 10j], the inhibition at 10 µM at PRMT4 stood at 99%; at PRMT6 it was 43%; on PRMT1, 25%; against PRMT3, 10%; on PRMT8 it was 56%.

As for `COc1cc2nc(-c3cccc(F)c3)nc(NCCSC[C@H]3O[C@@H](n4cnc5c(N)ncnc54)[C@H](O)[C@@H]3O)c2cc1OC` [Compound 12c], the inhibition at 10 µM turned out to be 62% on PRMT4; 43% on PRMT6; 15% at PRMT1; 15% on PRMT3; 35% on PRMT8.

As for `Nc1ncnc2c1ncn2[C@@H]1O[C@H](CSCCNC(=O)NCc2ccc(-c3cn[nH]c3)cc2)[C@@H](O)[C@H]1O` [Compound 8g], the inhibition at 10 µM was 19% at PRMT4; 5% at PRMT6; 2% on PRMT1; 10% at PRMT3; 5% on PRMT8.

For the molecule `Nc1ncnc2c1ncn2[C@@H]1O[C@H](CSCCCNC(=O)NCCCc2ccccc2)[C@@H](O)[C@H]1O` [Compound 7q], the inhibition at 10 µM was 62% at PRMT4; -6% at PRMT6; 18% at PRMT1; 5% on PRMT3; 16% at PRMT8.

Regarding `Nc1ncnc2c1ncn2[C@@H]1O[C@H](CSCCNCc2cccc(-c3cccc(O)c3)c2)[C@@H](O)[C@H]1O` [Compound 10i], the inhibition at 10 µM at PRMT4 stood at 100%; at PRMT6 it was 55%; against PRMT1 it was 15%; against PRMT3, 13%; on PRMT8, 74%.

In the case of `Nc1ncnc2c1ncn2[C@@H]1O[C@H](CSCCNCc2cccc(-c3ccc(F)c(O)c3)c2)[C@@H](O)[C@H]1O` [Compound 10f], the inhibition at 10 µM at PRMT4 turned out to be 99%; at PRMT6 it was 54%; at PRMT1, 7%; against PRMT3, 20%; at PRMT8 it was 80%.

As for `Nc1ncnc2c1ncn2[C@@H]1O[C@H](CSCCNC(=O)NC2CCCCC2)[C@@H](O)[C@H]1O` [Compound 7i, 1-(2-((((2S,3S,4R,5R)-5-(6-amino-9H-purin-9-yl)-3,4-dihydroxytetrahydrofuran-2-yl)methyl)thio)ethyl)-3-cyclohexylurea], the inhibition at 10 µM was 34% on PRMT4; -12% on PRMT6; 6% at PRMT1; 2% at PRMT3; -10% at PRMT8.

`N=C(NCCCSC[C@H]1O[C@@H](n2cnc3c(NCCCc4ccccc4)ncnc32)[C@H](O)[C@@H]1O)Nc1ccccc1` [Compound 19j]: the inhibition at 10 µM at PRMT4 was determined as 54%; on PRMT6, 92%; against PRMT1, 83%; against PRMT3, 2%; on PRMT8, 86%. Also, the IC50 at PRMT1 amounted to 460 ± 74 nM.

Consider `Nc1ncnc2c1ncn2[C@@H]1O[C@H](CSCCCNCc2cccc(-c3cccc4cn[nH]c34)c2)[C@@H](O)[C@H]1O` [Compound 10t], for which the inhibition at 10 µM at PRMT4 amounted to 99%; at PRMT6 it was 87%; against PRMT1 it was 69%; against PRMT3 it was 22%; at PRMT8, 72%.

For `COc1cc2nc(-c3ccc(O)cc3)nc(NCCSC[C@H]3O[C@@H](n4cnc5c(N)ncnc54)[C@H](O)[C@@H]3O)c2cc1OC` [Compound 12b], the inhibition at 10 µM was -4% on PRMT4; 91% on PRMT6; 2% on PRMT1; 13% at PRMT3; 22% on PRMT8. Also, the “PRMT6 inhibition” value on PRMT6 (10 μM) is given as “selective inhibition to PRMT6”.

Regarding `COc1cc2nc(-c3ccoc3)nc(NCCSC[C@H]3O[C@@H](n4cnc5c(N)ncnc54)[C@H](O)[C@@H]3O)c2cc1OC` [Compound 12d], the inhibition at 10 µM at PRMT4 was determined as 1%; on PRMT6, 16%; against PRMT1, 2%; against PRMT3 it was 10%; on PRMT8 it was 25%.

As for `N=C(NCCCSC[C@H]1O[C@@H](n2cnc3c(NCCCc4ccccc4)ncnc32)[C@H](O)[C@@H]1O)NCCc1ccccc1` [Compound 19l], the inhibition at 10 µM on PRMT4 was found to be 26%; on PRMT6, 86%; against PRMT1 it was 90%; against PRMT3 it was 9%; at PRMT8 it was 87%. On PRMT1, the concentration for half-maximal inhibition (IC50) stood at 500 ± 75 nM.

As to `Nc1ncnc2c1ncn2[C@@H]1O[C@H](CSCCNCc2cccc(-c3ccncc3)c2)[C@@H](O)[C@H]1O` [Compound 10k], the inhibition at 10 µM at PRMT4 was 99%; on PRMT6, 43%; against PRMT1 it was 15%; on PRMT3, 10%; on PRMT8, 69%.
